Legend:
[1] = target: T1, Alpha-1D adrenergic receptor (Homo sapiens, UniProt P25100); assay: Displacement of [3H]prazosin from human Alpha-1D adrenergic receptor expressed in CHO cells; assay type: cell-based
T1 sequence (P25100 whole entry): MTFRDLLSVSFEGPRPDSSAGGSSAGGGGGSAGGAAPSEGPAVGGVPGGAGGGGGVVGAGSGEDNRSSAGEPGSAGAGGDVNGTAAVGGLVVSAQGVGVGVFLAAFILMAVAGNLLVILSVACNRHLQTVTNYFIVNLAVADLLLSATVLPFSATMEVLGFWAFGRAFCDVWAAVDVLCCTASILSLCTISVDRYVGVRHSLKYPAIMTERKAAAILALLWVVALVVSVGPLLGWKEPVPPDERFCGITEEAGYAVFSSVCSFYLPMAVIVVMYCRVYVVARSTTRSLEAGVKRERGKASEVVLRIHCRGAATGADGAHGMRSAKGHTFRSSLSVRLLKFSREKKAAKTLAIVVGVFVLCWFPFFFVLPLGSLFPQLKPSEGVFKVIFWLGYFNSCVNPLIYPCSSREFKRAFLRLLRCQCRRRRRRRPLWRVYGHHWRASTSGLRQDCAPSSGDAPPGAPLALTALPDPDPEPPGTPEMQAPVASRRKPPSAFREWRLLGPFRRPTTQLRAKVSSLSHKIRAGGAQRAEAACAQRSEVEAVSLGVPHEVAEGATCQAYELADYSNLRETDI

[2] = target: T2, 5-hydroxytryptamine receptor 1A (Homo sapiens, UniProt P08908); assay: Displacement of [3H]8-OH-DPAT from human 5-HT1A receptor expressed in human HeLa cells; assay type: cell-based
T2 sequence (P08908 whole entry): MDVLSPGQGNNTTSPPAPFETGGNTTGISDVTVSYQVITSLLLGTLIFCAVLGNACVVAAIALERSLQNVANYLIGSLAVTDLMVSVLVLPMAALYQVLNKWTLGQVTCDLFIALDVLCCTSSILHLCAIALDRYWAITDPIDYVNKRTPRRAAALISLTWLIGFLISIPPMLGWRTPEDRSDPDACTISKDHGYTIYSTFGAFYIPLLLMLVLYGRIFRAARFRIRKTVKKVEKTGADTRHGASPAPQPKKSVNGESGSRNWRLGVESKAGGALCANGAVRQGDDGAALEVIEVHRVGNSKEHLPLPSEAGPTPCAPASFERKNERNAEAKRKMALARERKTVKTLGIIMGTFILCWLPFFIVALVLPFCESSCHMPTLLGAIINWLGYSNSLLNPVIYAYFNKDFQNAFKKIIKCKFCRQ

[3] = system: Vas deferens; assay: Inhibition of noradrenaline-induced contraction in rat prostatic vas deferens; assay type: functional
[4] = system: Spleen; assay: Inhibition of noradrenaline-induced contraction in rat spleen; assay type: functional
[5] = system: Thoracic aorta; assay: Inhibition of noradrenaline-induced contraction in rat thoracic aorta; assay type: functional
[6] = species: Homo sapiens; assay: Selectivity ratio of pKi for human 5-HT1A receptor to pKi for human alpha1 adrenergic receptor
[7] = target: T3, 5-hydroxytryptamine receptor 1A (Homo sapiens) (UniProt P08908); assay: Agonist activity at human recombinant 5HT1A receptor expressed in human HeLa cells by [35S]GTPgammaS binding assay relative to serotonin; assay type: functional, cell-based
T3 sequence (whole entry): T2 sequence (P08908 whole entry)

[8] = target: T3, 5-hydroxytryptamine receptor 1A (Homo sapiens); assay: Agonist activity at human recombinant 5HT1A receptor expressed in human HeLa cells by [35S]GTPgammaS binding assay; assay type: functional, cell-based
[9] = target: T4, Alpha-1A adrenergic receptor (Homo sapiens, UniProt P35348); assay: Displacement of [3H]prazosin from human alpha1A adrenergic receptor expressed in CHO cells; assay type: cell-based
T4 sequence (P35348 whole entry): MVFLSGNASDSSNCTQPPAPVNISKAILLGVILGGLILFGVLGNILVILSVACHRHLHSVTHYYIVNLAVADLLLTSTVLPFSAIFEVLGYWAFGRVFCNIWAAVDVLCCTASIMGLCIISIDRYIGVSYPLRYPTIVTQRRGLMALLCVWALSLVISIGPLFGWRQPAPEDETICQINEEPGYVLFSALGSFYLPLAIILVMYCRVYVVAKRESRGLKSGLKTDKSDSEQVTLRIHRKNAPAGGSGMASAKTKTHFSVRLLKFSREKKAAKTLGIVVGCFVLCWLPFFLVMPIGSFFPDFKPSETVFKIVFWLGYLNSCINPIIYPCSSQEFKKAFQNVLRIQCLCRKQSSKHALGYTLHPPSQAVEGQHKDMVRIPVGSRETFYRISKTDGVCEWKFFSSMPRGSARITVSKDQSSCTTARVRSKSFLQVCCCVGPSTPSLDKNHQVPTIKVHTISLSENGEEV

[10] = target: T5, Alpha-1B adrenergic receptor (Homo sapiens, UniProt P35368); assay: Displacement of [3H]prazosin from human Alpha-1B adrenergic receptor expressed in CHO cells; assay type: cell-based
T5 sequence (P35368 whole entry): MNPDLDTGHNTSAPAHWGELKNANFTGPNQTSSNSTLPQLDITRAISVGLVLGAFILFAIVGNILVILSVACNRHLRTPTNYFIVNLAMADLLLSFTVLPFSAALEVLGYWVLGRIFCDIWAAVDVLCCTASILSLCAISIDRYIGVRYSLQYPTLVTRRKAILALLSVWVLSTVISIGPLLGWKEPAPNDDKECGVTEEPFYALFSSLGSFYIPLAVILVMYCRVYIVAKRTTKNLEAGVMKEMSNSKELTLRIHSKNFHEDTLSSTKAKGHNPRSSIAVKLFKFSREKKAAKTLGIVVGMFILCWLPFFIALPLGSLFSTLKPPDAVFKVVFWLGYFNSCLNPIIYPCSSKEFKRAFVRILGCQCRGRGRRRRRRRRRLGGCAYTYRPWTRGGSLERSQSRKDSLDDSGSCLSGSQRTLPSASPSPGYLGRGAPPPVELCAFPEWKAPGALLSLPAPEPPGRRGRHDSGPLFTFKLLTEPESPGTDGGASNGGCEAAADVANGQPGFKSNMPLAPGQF

SMILES	Ki [1]	Ki [2]	pKb [3]	pKb [4]	pKb [5]	Ratio pKi [6]	Emax [7]	pD2 [8]	Ki [9]	Ki [10]
COc1cccc(OCCNCC2COC(c3ccccc3)(c3ccccc3)O2)c1 (racemic)	0.0575 µM	0.00263 µM	5.75	5.79	6.61	22	14%	5.97	0.0912 µM	0.0589 µM
c1ccc(-c2ccc(OCCNCC3COC(c4ccccc4)(c4ccccc4)O3)cc2)cc1 (racemic)	> 1 µM	> 1 µM	5.65	5.84	5.08	–	–	–	> 1 µM	> 1 µM
c1ccc(-c2cccc(OCCNCC3COC(c4ccccc4)(c4ccccc4)O3)c2)cc1 (racemic)	> 1 µM	0.0288 µM	5.19	6.21	<5	> 35	–	–	> 1 µM	> 1 µM
c1ccc(-c2ccccc2OCCNCC2COC(c3ccccc3)(c3ccccc3)O2)cc1 (racemic)	0.331 µM	0.00219 µM	<5	5.47	6.1	151	73%	7.82	0.49 µM	> 1 µM
CC(C)Oc1ccccc1OCCNCC1COC(c2ccccc2)(c2ccccc2)O1 (racemic)	0.00631 µM	0.0017 µM	7.25	7.25	7.59	1	25%	9.08	0.00209 µM	0.02 µM
CCOc1ccccc1OCCNCC1COC(c2ccccc2)(c2ccccc2)O1 (racemic)	0.00676 µM	0.000891 µM	7.23	6.92	7.91	7	36%	9.08	0.00661 µM	0.0537 µM
COc1cc(OC)cc(OCCNCC2COC(c3ccccc3)(c3ccccc3)O2)c1 (racemic)	> 1 µM	> 1 µM	5.41	5.49	6.77	0.2	–	–	0.302 µM	0.447 µM
COc1ccc(OCCNCC2COC(c3ccccc3)(c3ccccc3)O2)cc1OC (racemic)	> 1 µM	0.0977 µM	5.09	6.01	6.9	1.4	–	–	> 1 µM	0.138 µM
COc1cccc(OCCNCC2COC(c3ccccc3)(c3ccccc3)O2)c1OC (racemic)	0.355 µM	0.00759 µM	5.86	5.85	6.64	11	–	–	0.0851 µM	0.174 µM
COc1ccccc1OCCNCC1COC(c2ccccc2)(c2ccccc2)O1 (racemic)	–	0.000603 µM	7.53	7.36	8.65	15	32%	7.36	0.0195 µM	0.0468 µM
c1ccc(OCCNCC2COC(c3ccccc3)(c3ccccc3)O2)cc1 (racemic)	–	0.00355 µM	6.16	5.86	8.37	3	24%	8.8	–	–
Cc1ccccc1OCCNCC1COC(c2ccccc2)(c2ccccc2)O1 (racemic)	0.0257 µM	0.00832 µM	6.02	5.73	6.77	3	–	–	0.117 µM	0.24 µM
COc1cccc(OC)c1OCCNCC1COC(c2ccccc2)(c2ccccc2)O1 (racemic)	0.182 µM	0.0537 µM	5.73	5.89	6.93	14	–	–	0.1 µM	0.0759 µM
COc1ccc(OCCNCC2COC(c3ccccc3)(c3ccccc3)O2)cc1 (racemic)	–	–	<5	6.25	6.94	–	–	–	–	–
COc1ccccc1CCCNCC1COC(c2ccccc2)(c2ccccc2)O1 (racemic)	0.0501 µM	0.00794 µM	5.92	5.97	6.86	6	14%	5.92	0.049 µM	0.0417 µM
CCCN(CCC)C1CCc2cccc(O)c2C1 (stereo not drawn) [8-OH-DPAT]	–	–	–	–	–	–	–	–	–	> 1 µM
COc1ccccc1N1CCN(CCN2C(=O)CC3(CCCC3)CC2=O)CC1 [BMY-7378]	–	–	–	7.48	–	–	26%	9.27	–	–
